Experimental data as given in patent US20210278391A1, “COMPOSITIONS AND METHODS FOR TREATING CARDIOVASCULAR AND METABOLIC CONDITIONS” (The Regents of the University of California, priority 2017, published 2021).

Settings: male, C57BL/6, mouse, in vivo, ip
Procedure: Ob/ob mice or wildtype C57BL/6 male mice were purchased from Jackson Labs or SLAC Laboratory Animals Company Limited, Shanghai, China. PP2Cm germ-line knockout mice were generated as previously described (Lu et al. (2009) J Clin Invest 119:1678-1687). All animals were housed at 22° C. with a 12-hour light, 12-hour dark cycle with free access to water and standard chow. BCAA in water was prepared by BCAA powders. Isocaloric high protein diet (TD90018) and low protein diet (TD90016) were purchased from Envigo Teklad Diet. For glucose or insulin tolerance test, mice were fasted for 6 hours and injected (intraperitoneally) with insulin or D-glucose. […] For BCAA tolerance test, ob/ob mice at age of 10 weeks or high fat diet induced obese (DIO) mice were used. To induce DIO, high fat diet (60% kcal % fat) or control diet (10% kcal % fat) (Research Diets, New Brunswick, N.J.) was used to feed mice starting at 6 weeks of age and continued for 8 weeks. […] Plasma samples were collected at 0, 30, 60, 120 minute points to measure BCAA/BCKA levels. […]
Blood samples were collected at 0, 30, 60, 120 minute points as indicated. Plasma was then collected and BCAA/BCKA was measured.

Question: With CC(C)C[C@H](N)C(=O)O [leucine] as the molecule, how does the “time point of recovery to near the basal level” value read?
Answer: Its value is 1 h.
